Experimental data published in US7964531B2, “3-phenoxy-4-pyridazinol derivatives and herbicidal composition containing the same” (Mitsui Chemicals Agro, Inc., priority 2001, dated 2011).

Columns and labels:
Type in all cases: in vivo
Details in all cases: wettable powder applied 3 days after transplanting, judged after 25 days
Cyperus serotinus = assay: Test Example 1: herbicidal effects, paddy-field pot test
Outline: (§1)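 Herbicidal effect and rice injury were graded on a six-step growth-inhibition scale (0: 0–10% to 5: 91–100%) at 25 days after pot application of water-diluted wettable powder, given 3 days post-transplant under flooded greenhouse conditions.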

Scirpus joncoides = assay: as above
Outline: as §1

[1] = system: annual broad-leaved weeds (Lindernia spp., Rotala indica); assay: as above
Outline: as §1

[2] = system: barnyardgrass (Echinochloa oryzicola Vasing.); assay: as above
Outline: as §1

[3] = system: transplanted paddy-field rice; assay: Test Example 1: crop injury against transplanted paddy-field rice
Outline: as §1

Row | SMILES | Herbicidal effects Cyperus serotinus (Cyperus serotinus; chemical dosage 12.5 g/a) | Herbicidal effects Cyperus serotinus (Cyperus serotinus; chemical dosage 25 g/a) | Herbicidal effects Scirpus joncoides (Scirpus joncoides; chemical dosage 12.5 g/a) | Herbicidal effects Scirpus joncoides (Scirpus joncoides; chemical dosage 25 g/a) | Herbicidal effects Broad leaf ([1]; chemical dosage 12.5 g/a) | Herbicidal effects Broad leaf ([1]; chemical dosage 25 g/a) | Herbicidal effects Barnyard grass ([2]; chemical dosage 12.5 g/a) | Herbicidal effects Barnyard grass ([2]; chemical dosage 25 g/a) | Crop injury against transplanted rice ([3]; chemical dosage 12.5 g/a) | Crop injury against transplanted rice ([3]; chemical dosage 25 g/a) | Herbicidal effects Cyperus serotinus (Cyperus serotinus; chemical dosage 10 g/a) | Herbicidal effects Scirpus joncoides (Scirpus joncoides; chemical dosage 10 g/a) | Herbicidal effects Broad leaf ([1]; chemical dosage 10 g/a) | Herbicidal effects Barnyard grass ([2]; chemical dosage 10 g/a) | Crop injury against transplanted rice ([3]; chemical dosage 10 g/a) | Herbicidal effects Cyperus serotinus (Cyperus serotinus; chemical dosage 20 g/a) | Herbicidal effects Scirpus joncoides (Scirpus joncoides; chemical dosage 20 g/a) | Herbicidal effects Broad leaf ([1]; chemical dosage 20 g/a) | Herbicidal effects Barnyard grass ([2]; chemical dosage 20 g/a) | Crop injury against transplanted rice ([3]; chemical dosage 20 g/a)
1 | Oc1cc(Cl)nnc1Oc1c(Cl)cccc1Cl [Example 240] | 5 (Growth inhibition rate; 91 to 100%) | 5 (Growth inhibition rate; 91 to 100%) | 3 (Growth inhibition rate; 51 to 70%) | 4 (Growth inhibition rate; 71 to 90%) | 5 (Growth inhibition rate; 91 to 100%) | 5 (Growth inhibition rate; 91 to 100%) | 2 (Growth inhibition rate; 31 to 50%) | 3 (Growth inhibition rate; 51 to 70%) | 0 (Growth inhibition rate; 0 to 10%) | 0 (Growth inhibition rate; 0 to 10%) | – | – | – | – | – | – | – | – | – | –
2 | Cc1ccc(Cl)c(Oc2nnc(Cl)cc2O)c1 [Example 203] | 5 (Growth inhibition rate; 91 to 100%) | 5 (Growth inhibition rate; 91 to 100%) | 5 (Growth inhibition rate; 91 to 100%) | 5 (Growth inhibition rate; 91 to 100%) | 5 (Growth inhibition rate; 91 to 100%) | 5 (Growth inhibition rate; 91 to 100%) | 1 (Growth inhibition rate; 11 to 30%) | 2 (Growth inhibition rate; 31 to 50%) | 0 (Growth inhibition rate; 0 to 10%) | 0 (Growth inhibition rate; 0 to 10%) | – | – | – | – | – | – | – | – | – | –
3 | Oc1cc(Cl)nnc1Oc1cccc2ccccc12 [Example 180] | 5 (Growth inhibition rate; 91 to 100%) | 5 (Growth inhibition rate; 91 to 100%) | 2 (Growth inhibition rate; 31 to 50%) | 3 (Growth inhibition rate; 51 to 70%) | 5 (Growth inhibition rate; 91 to 100%) | 5 (Growth inhibition rate; 91 to 100%) | 0 (Growth inhibition rate; 0 to 10%) | 0 (Growth inhibition rate; 0 to 10%) | 0 (Growth inhibition rate; 0 to 10%) | 0 (Growth inhibition rate; 0 to 10%) | – | – | – | – | – | – | – | – | – | –
4 | Oc1cc(Cl)nnc1Oc1cccc2c1C1CC1C2 (stereo not drawn) [Example 14] | – | – | – | – | – | – | – | – | – | – | 5 (Growth inhibition rate; 91 to 100%) | 4 (Growth inhibition rate; 71 to 90%) | 5 (Growth inhibition rate; 91 to 100%) | 0 (Growth inhibition rate; 0 to 10%) | 0 (Growth inhibition rate; 0 to 10%) | – | – | – | – | –
5 | CC(=O)Oc1cc(Cl)nnc1Oc1ccccc1C1CC1 [Example 323] | – | – | – | – | – | – | – | – | – | – | 5 (Growth inhibition rate; 91 to 100%) | 5 (Growth inhibition rate; 91 to 100%) | 5 (Growth inhibition rate; 91 to 100%) | 3 (Growth inhibition rate; 51 to 70%) | 0 (Growth inhibition rate; 0 to 10%) | 5 (Growth inhibition rate; 91 to 100%) | 5 (Growth inhibition rate; 91 to 100%) | 5 (Growth inhibition rate; 91 to 100%) | 4 (Growth inhibition rate; 71 to 90%) | 0 (Growth inhibition rate; 0 to 10%)
6 | Oc1cc(Cl)nnc1Oc1ccccc1OC(F)(F)F [Example 125] | – | – | – | – | – | – | – | – | – | – | 4 (Growth inhibition rate; 71 to 90%) | 3 (Growth inhibition rate; 51 to 70%) | 5 (Growth inhibition rate; 91 to 100%) | 1 (Growth inhibition rate; 11 to 30%) | 0 (Growth inhibition rate; 0 to 10%) | 5 (Growth inhibition rate; 91 to 100%) | 4 (Growth inhibition rate; 71 to 90%) | 5 (Growth inhibition rate; 91 to 100%) | 2 (Growth inhibition rate; 31 to 50%) | 0 (Growth inhibition rate; 0 to 10%)
7 | Cc1cc(C)c(Br)c(Oc2nnc(Cl)cc2O)c1C [Example 319] | – | – | – | – | – | – | – | – | – | – | 5 (Growth inhibition rate; 91 to 100%) | 5 (Growth inhibition rate; 91 to 100%) | 5 (Growth inhibition rate; 91 to 100%) | 2 (Growth inhibition rate; 31 to 50%) | 0 (Growth inhibition rate; 0 to 10%) | 5 (Growth inhibition rate; 91 to 100%) | 5 (Growth inhibition rate; 91 to 100%) | 5 (Growth inhibition rate; 91 to 100%) | 3 (Growth inhibition rate; 51 to 70%) | 0 (Growth inhibition rate; 0 to 10%)
8 | CCc1cccc(Br)c1Oc1nnc(Cl)cc1O [Example 250] | – | – | – | – | – | – | – | – | – | – | 5 (Growth inhibition rate; 91 to 100%) | 5 (Growth inhibition rate; 91 to 100%) | 5 (Growth inhibition rate; 91 to 100%) | 3 (Growth inhibition rate; 51 to 70%) | 0 (Growth inhibition rate; 0 to 10%) | 5 (Growth inhibition rate; 91 to 100%) | 5 (Growth inhibition rate; 91 to 100%) | 5 (Growth inhibition rate; 91 to 100%) | 4 (Growth inhibition rate; 71 to 90%) | 0 (Growth inhibition rate; 0 to 10%)
9 | Cc1ccc(C2CC2)c(Oc2nnc(Cl)cc2O)c1 [Example 218] | – | – | – | – | – | – | – | – | – | – | 5 (Growth inhibition rate; 91 to 100%) | 5 (Growth inhibition rate; 91 to 100%) | 5 (Growth inhibition rate; 91 to 100%) | 0 (Growth inhibition rate; 0 to 10%) | 0 (Growth inhibition rate; 0 to 10%) | 5 (Growth inhibition rate; 91 to 100%) | 5 (Growth inhibition rate; 91 to 100%) | 5 (Growth inhibition rate; 91 to 100%) | 1 (Growth inhibition rate; 11 to 30%) | 0 (Growth inhibition rate; 0 to 10%)
10 | Oc1cc(Cl)nnc1Oc1ccccc1C1CCC1 [Example 85] | – | – | – | – | – | – | – | – | – | – | 5 (Growth inhibition rate; 91 to 100%) | 3 (Growth inhibition rate; 51 to 70%) | 4 (Growth inhibition rate; 71 to 90%) | 2 (Growth inhibition rate; 31 to 50%) | 0 (Growth inhibition rate; 0 to 10%) | – | – | – | – | –
11 | CC(C)c1cccc(C2CC2)c1Oc1nnc(Cl)cc1O [Example 272] | – | – | – | – | – | – | – | – | – | – | 4 (Growth inhibition rate; 71 to 90%) | 4 (Growth inhibition rate; 71 to 90%) | 5 (Growth inhibition rate; 91 to 100%) | 0 (Growth inhibition rate; 0 to 10%) | 0 (Growth inhibition rate; 0 to 10%) | 4 (Growth inhibition rate; 71 to 90%) | 5 (Growth inhibition rate; 91 to 100%) | 5 (Growth inhibition rate; 91 to 100%) | 0 (Growth inhibition rate; 0 to 10%) | 0 (Growth inhibition rate; 0 to 10%)
12 | CC(C)Oc1ccccc1Oc1nnc(Cl)cc1O [Example 123] | – | – | – | – | – | – | – | – | – | – | 4 (Growth inhibition rate; 71 to 90%) | 3 (Growth inhibition rate; 51 to 70%) | 5 (Growth inhibition rate; 91 to 100%) | 0 (Growth inhibition rate; 0 to 10%) | 0 (Growth inhibition rate; 0 to 10%) | 5 (Growth inhibition rate; 91 to 100%) | 4 (Growth inhibition rate; 71 to 90%) | 5 (Growth inhibition rate; 91 to 100%) | 1 (Growth inhibition rate; 11 to 30%) | 0 (Growth inhibition rate; 0 to 10%)
13 | Cc1ccccc1Oc1nnc(Cl)cc1OC(=O)OCC(Cl)(Cl)Cl [Example 349] | – | – | – | – | – | – | – | – | – | – | 5 (Growth inhibition rate; 91 to 100%) | 4 (Growth inhibition rate; 71 to 90%) | 4 (Growth inhibition rate; 71 to 90%) | 3 (Growth inhibition rate; 51 to 70%) | 0 (Growth inhibition rate; 0 to 10%) | 5 (Growth inhibition rate; 91 to 100%) | 5 (Growth inhibition rate; 91 to 100%) | 5 (Growth inhibition rate; 91 to 100%) | 4 (Growth inhibition rate; 71 to 90%) | 0 (Growth inhibition rate; 0 to 10%)
